For assay [1], the target named is SUR1 (sulphonylurea receptor subunit of the pancreatic beta-cell KATP channel) (Mus musculus, UniProt B2RUS7). Put plainly: standard whole-cell patch-clamp, block by a single concentration. It counts as cell-based. The conditions noted are these: read-out: % inhibition at 20 μmol/L. Background: Patch clamp records ionic current or voltage across a cell membrane.
Assay [2] addresses Kir6.2 (pore subunit of the pancreatic beta-cell KATP channel) (Mus musculus, UniProt Q61743). Put plainly: inside-out patch-clamp, single-channel NPo concentration-effect. Type of assay: cell-based.

SMILES strings stand for the structures.

These results are taken from paper PMC6354820 (Endocrinology, Diabetes & Metabolism, 2018).

In general, IC50 refers to the concentration that inhibits the measured activity by half. Low readings indicate inhibition by little substance, high ones a need for much substance.

Sequence of Kir6.2 (pore subunit of the pancreatic beta-cell KATP channel) (Q61743 whole entry): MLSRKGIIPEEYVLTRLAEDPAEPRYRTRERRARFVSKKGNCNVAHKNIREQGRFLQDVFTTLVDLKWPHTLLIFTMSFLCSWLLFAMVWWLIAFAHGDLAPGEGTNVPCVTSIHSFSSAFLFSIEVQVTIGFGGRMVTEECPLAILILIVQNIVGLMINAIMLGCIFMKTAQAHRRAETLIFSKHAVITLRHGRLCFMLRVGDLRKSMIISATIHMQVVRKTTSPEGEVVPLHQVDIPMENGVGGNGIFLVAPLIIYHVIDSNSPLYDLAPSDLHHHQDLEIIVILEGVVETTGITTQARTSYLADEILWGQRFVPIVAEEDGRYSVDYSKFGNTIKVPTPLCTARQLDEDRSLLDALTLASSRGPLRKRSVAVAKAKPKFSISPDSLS
Sequence of Kir6.2 (pore subunit of the pancreatic beta-cell KATP channel) (B2RUS7 1-1588 partner): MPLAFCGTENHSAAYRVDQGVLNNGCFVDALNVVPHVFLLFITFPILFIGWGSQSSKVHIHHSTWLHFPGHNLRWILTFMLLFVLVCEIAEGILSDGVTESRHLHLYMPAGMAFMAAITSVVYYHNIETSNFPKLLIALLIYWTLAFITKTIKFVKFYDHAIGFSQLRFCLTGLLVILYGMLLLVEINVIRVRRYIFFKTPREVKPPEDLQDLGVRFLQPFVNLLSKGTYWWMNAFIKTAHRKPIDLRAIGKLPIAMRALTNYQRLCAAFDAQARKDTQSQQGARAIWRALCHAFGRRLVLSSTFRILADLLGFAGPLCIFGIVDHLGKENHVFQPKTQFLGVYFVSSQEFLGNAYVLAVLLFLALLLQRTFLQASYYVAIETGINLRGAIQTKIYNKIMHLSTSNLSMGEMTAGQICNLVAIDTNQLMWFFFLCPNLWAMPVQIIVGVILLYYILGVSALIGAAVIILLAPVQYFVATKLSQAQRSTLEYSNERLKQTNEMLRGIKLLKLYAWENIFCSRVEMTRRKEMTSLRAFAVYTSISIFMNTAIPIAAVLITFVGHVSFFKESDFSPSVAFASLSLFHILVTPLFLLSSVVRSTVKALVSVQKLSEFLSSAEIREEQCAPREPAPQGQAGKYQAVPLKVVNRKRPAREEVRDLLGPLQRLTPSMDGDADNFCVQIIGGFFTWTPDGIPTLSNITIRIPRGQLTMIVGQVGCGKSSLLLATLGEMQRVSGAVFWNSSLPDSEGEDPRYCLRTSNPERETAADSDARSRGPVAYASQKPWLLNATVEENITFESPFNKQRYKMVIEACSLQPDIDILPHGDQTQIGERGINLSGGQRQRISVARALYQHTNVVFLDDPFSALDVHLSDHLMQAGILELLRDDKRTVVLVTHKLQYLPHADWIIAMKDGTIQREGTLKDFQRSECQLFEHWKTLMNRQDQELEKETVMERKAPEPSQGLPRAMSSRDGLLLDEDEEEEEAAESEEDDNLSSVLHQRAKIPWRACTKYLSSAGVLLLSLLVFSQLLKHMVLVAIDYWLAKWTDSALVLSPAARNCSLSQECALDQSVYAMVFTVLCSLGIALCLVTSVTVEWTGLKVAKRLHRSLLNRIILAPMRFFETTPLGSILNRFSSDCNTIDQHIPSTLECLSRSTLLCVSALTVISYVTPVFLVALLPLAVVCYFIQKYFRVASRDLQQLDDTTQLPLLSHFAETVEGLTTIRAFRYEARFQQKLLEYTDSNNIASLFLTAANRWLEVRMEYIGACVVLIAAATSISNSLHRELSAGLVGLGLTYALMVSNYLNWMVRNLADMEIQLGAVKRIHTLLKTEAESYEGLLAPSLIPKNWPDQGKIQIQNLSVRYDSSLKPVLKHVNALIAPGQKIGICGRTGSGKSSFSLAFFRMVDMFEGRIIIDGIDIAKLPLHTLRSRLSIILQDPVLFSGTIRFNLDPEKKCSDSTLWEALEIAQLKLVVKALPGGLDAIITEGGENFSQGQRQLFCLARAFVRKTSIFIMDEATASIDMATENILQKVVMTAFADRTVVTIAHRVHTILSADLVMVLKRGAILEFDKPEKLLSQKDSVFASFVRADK
Sequence of SUR1 (sulphonylurea receptor subunit of the pancreatic beta-cell KATP channel) (B2RUS7 1-1588): as the sequence (B2RUS7 1-1588 partner) above
Sequence of SUR1 (sulphonylurea receptor subunit of the pancreatic beta-cell KATP channel) (Q61743 whole entry partner): as the sequence (Q61743 whole entry) above

For the molecule `CCCCNC(=O)NS(=O)(=O)c1ccc(C)cc1` [Tb, tolbutamide], the inhibition at 20 µM in assay [1] worked out at 43 ± 3.3%.

In turn, `CCC(C)(C)C(=O)O[C@H]1C[C@@H](C)C=C2C=C[C@H](C)[C@H](CC[C@@H]3C[C@@H](O)CC(=O)O3)[C@H]21` [Sim, simvastatin] displayed an IC50 in assay [2] of 26 nM.
